The results in this text go back to a melting point compilation (Tetko et al.; mined from patent text by program, amines drawn as free bases though some values may be those of a salt).

Consider `CCCCCCCCC/C=C1\SC(=O)N(CC(=O)OC)C1=O`, for which the melting point amounted to 30 °C.

Compound `CC(C)(O)CC(=O)c1cc(C(C)(C)C)c(O)c(C(C)(C)C)c1` displayed a melting point of 113 to 114 °C.

Take `O=C(CCC12CCC(=O)N1C(=O)CC2)Nc1ccncc1`: the melting point lay in the range of 285 to 287 °C.

As to `O=c1[nH]c2cc([N+](=O)[O-])ccc2cc1P(=O)(O)O`, the melting point is more than 300 °C.

In the case of `CC(O)COc1ccc2c(c1)c(-c1cc3cccnc3[nH]1)cn2C` (configuration not stated), the melting point was in the range of 198 to 199 °C.

The compound `NC(=O)c1ccc(CN2CCN(C(=O)c3cc(C(F)(F)F)cc(C(F)(F)F)c3)[C@H](Cc3c[nH]c4ccccc34)C2)cc1` showed a melting point of 120 to 126 °C.

The compound `O=c1oc2ccccc2c(O)c1[N+](=O)[O-]` displayed a melting point of 174 °C.

For the compound `C[C@H](c1ccccc1)n1c(=O)[nH]c2ncc(-c3ccc(-c4nc[nH]n4)cc3)nc21`, the melting point fell in the range of 258 to 260 °C.

`CCOC(=O)C1=C(C)Nc2ccn(CCCN(C)C)c(=O)c2C1c1cccc([N+](=O)[O-])c1` (configuration not stated) showed a melting point of 212 to 213 °C.

The compound `CN1Cc2ccccc2C(Oc2ccc(C#N)cc2)C1` (configuration not stated) had a melting point of 131 to 132 °C.

Compound `CCOP(=O)(CCN1CCC(N(CCCN)S(=O)(=O)c2ccc(Nc3nccc(Nc4ccc(F)cc4)n3)cc2)CC1)OCC` displayed a melting point of 125 to 130 °C.

`CC(C)c1ccc(S(=O)(=O)n2c(Cc3cccc(C(=O)O)c3)cc3cc(Cl)ccc32)cc1` gave a melting point of 170 °C.

In turn, `CSc1ccc(C(=O)Nc2cccnc2C(=O)Nc2ccc(Cl)cn2)c(OC2CCNCC2)c1` registered a melting point of 157 to 158 °C.

Regarding `CCc1nn2ccc3c(c2c1C(C)CNC(C)=O)CCO3` (configuration not stated), the melting point fell in the range of 151 to 153 °C.

Consider `CN(c1cccc(C=C2c3ccccc3CCc3ccccc32)c1)S(C)(=O)=O`, for which the melting point was found to be 124 °C.

For `Cn1c(C(F)(F)F)cc(=O)n(-c2ccc3snc(CN(C(=O)OC(C)(C)C)S(C)(=O)=O)c3c2)c1=O`, the melting point lay within 109 to 111 °C.

As to `O=C1c2ccccc2C(=O)N1c1ccc(N2C(=O)c3ccccc3C2=O)c(O)c1`, the melting point is more than 300 °C.

Regarding `O=C(NCCCCN1CCC(c2ccc3c(c2OCCO)CCCC3)CC1)c1ccc(-c2ccc(Cl)cc2)cc1`, the melting point amounted to 162 °C.

In turn, `O=c1n(CCCCN2CCC(n3c(=O)[nH]c4ccccc43)CC2)nc2n1-c1ccccc1OC2` yielded a melting point of 173 to 176 °C.

Take `O=C1c2ccccc2CCC1Cc1ccccc1` (configuration not stated): the melting point was in the range of 50 to 51 °C.

Compound `CC1CCc2cc(F)cc3c(=O)c(C(=O)NN)cn1c23` (configuration not stated) showed a melting point of 236 to 238 °C.

With `CC(=O)c1ccc(Oc2ccc(S(=O)(=O)C3CCCCC3)cn2)cc1`, the melting point fell in the range of 116 to 118 °C.

Compound `COc1ccc2cnc(Nc3ccc(F)c(C)c3)nc2c1C1CCCC1` displayed a melting point of 208 to 209 °C.

Turning to `COC[C@H](Cc1ccccc1)NC(=O)[C@@H](CC(=O)OCc1ccccc1)NC(=O)OC(C)(C)C`, the melting point lay in the range of 60 to 63 °C.

`CC1(C)OC(=O)Nc2ccc(-c3cccc(CC#N)c3)cc21` showed a melting point of 188 to 190 °C.

`NS(=O)(=O)c1ccc(N2CN(c3ccccc3)CC2=O)c(Br)c1` showed a melting point of 193 to 200 °C.

`O=C(O)CCCC(=O)NCc1ccccc1` came in with a melting point of 83 to 84 °C.

As to `CC1(C)CC(=O)OC1CC(Cl)(Cl)Cl` (configuration not stated), the melting point was 56 to 58 °C.

In the case of `Nc1nc(F)cc(Oc2ccc(Cl)cc2)n1`, the melting point was in the range of 223 to 226 °C.

As for `CCS(=O)(=O)Nc1nc(CN2CCC(OC(c3ccccc3)c3ccccc3)CC2)cs1`, the melting point fell in the range of 190 to 191 °C.

For the compound `Cc1nc[nH]c(=O)c1Cc1ccccc1`, the melting point is 140 to 142 °C.

Turning to `CCOC(=O)C1(C(=O)OCC)CCC2(c3cc(OC)c(OC)cc3CCN2C(=O)CC)C(C2c3cc(OC)c(OC)cc3CCN2CC)C1` (configuration not stated), the melting point was determined as 138 °C.

Take `COc1ccc2c(c1)C(=O)OC2=O`: the melting point was 89 to 94 °C.

For the compound `O=C(O)Cc1cc(S)n2ncnc2n1`, the melting point lay within 283 to 286 °C.

Turning to `O=C(Nc1ccc(-n2nc(C(F)(F)F)cc2C(F)(F)F)cc1)c1ccc2c(c1)OCO2`, the melting point was 222 to 224 °C.

`CC1(COc2c(-c3ccc(S(C)(=O)=O)cc3)cnn(CC(F)(F)F)c2=O)CC1` registered a melting point of 98 to 99 °C.

With `CSc1c(C(=O)O)ccc(F)c1F`, the melting point lay in the range of 149 to 150 °C.

On to `CN(c1cc(OCC(=O)O)cc2cc(C3=NCC(CN4CCSCC4)S3)[nH]c12)S(=O)(=O)c1ccccn1` (configuration not stated), for which the melting point was 132 to 134 °C.

For the compound `CCCCCc1nc(C#N)c(C#N)nc1O`, the melting point was in the range of 61 to 64 °C.

`Cc1ccc(S(=O)(=O)OC(=O)c2ccc(C(=O)OS(=O)(=O)c3ccc(C)cc3)cc2)cc1` displayed a melting point of 170 to 176 °C.

Compound `O=C(O)c1ccccc1NCCNc1ccccc1C(=O)O` yielded a melting point of 248 °C.

As to `COc1nc(-c2ccc(F)cc2C)c2c(n1)N(c1c(F)cccc1F)C(=O)NC2`, the melting point is 210 to 211 °C.

`CN1Cc2c(-c3nc(CCl)cs3)ncn2-c2cccc(Cl)c2C1=O` showed a melting point of 277 to 279 °C.

Consider `CCOC(=O)c1c(C)nc2c(c1N)c1ccccc1n2C`, for which the melting point is 79 to 80 °C.

As for `Cc1ccccc1NC(=O)c1ccc(-n2nc(C3CC3)cc2C2CC2)nc1`, the melting point was 123 to 126 °C.

Turning to `CN1CC(CO)C=C2c3cccc4[nH]c(Br)c(c34)CC21` (configuration not stated), the melting point stood at 193 °C.

On to `CC(Cl)OC(=O)Oc1c(Br)cc(C#N)cc1Br` (configuration not stated), for which the melting point was 91 to 93 °C.

The compound `O=C([C@@H](Cc1ccc(Cl)cc1)NC1CCCCC1)N1CCC(Cn2cncn2)(C2CCCCC2)CC1` came in with a melting point of 60 °C.

On to `CN1Cc2c(-c3noc(CN)n3)ncn2-c2ccsc2C1=O`, for which the melting point fell in the range of 202 to 204 °C.

`COc1cc2c(Nc3ccc(Oc4ccccc4OC)cc3)c(C#N)cnc2cc1F`: the melting point lay within 146 to 150 °C.

`COc1cc2c(cc1OC)CC(=O)NC=C2` had a melting point of 234 to 237 °C.

In turn, `COc1cc([N+](=O)[O-])c(NCCO)c([N+](=O)[O-])c1` came in with a melting point of 104 °C.

`CN(C)Cc1ccc(NC(=O)C2=Cc3cc(-c4ccccc4)ccc3CC2)cc1`: the melting point was 182 to 184 °C.

The compound `CN1CCN(C2Cc3ccc(Cl)cc3Sc3cc(F)ccc32)CC1` (configuration not stated) showed a melting point of 156 to 158 °C.

`COc1ccc(-c2cc(CO)c(=O)n(Cc3ccc(F)c(F)c3)n2)cc1F`: the melting point lay within 154 to 156 °C.

Turning to `O=C(NC1CCCCC1)c1ccc(-c2cnc(-c3ccc(NC(=O)c4ccccn4)cc3)[nH]2)cc1`, the melting point was in the range of 250 to 252 °C.

`Cc1cc2c(cc1C)=NC(=O)N=2` came in with a melting point of more than 360 °C.

`Cc1ccc(C2=CCNCC2)nc1`: the melting point lay within 78 to 80 °C.

Compound `O=C(NC1CN2CCC1CC2)c1ccc2[nH]ccc2c1` (configuration not stated) came in with a melting point of 293 to 295 °C.

`CN(C)C(=O)Nc1cnc(N(C)C)c(Cl)c1`: the melting point fell in the range of 139 to 141 °C.

As for `CC[C@H](C)CNC(=O)[C@@H](C[C@H](O)[C@H](CC1CCCCC1)NC(=O)[C@H](Cc1cscn1)NC(=O)OC(C)(C)C)C(C)(C)O`, the melting point lay in the range of 190 to 193 °C.

`COC(=O)C=Cc1ccc(OCC2CN(c3ccccc3)C(=O)O2)cc1` (configuration not stated) returned a melting point of 179 to 181 °C.
